Twelve molecules from patent US20230339886A1 (University of Florida Research Foundation, Incorporated, priority 2020, published 2023) can be followed below.

As a reminder, the EC50 is the concentration needed to bring the measured effect to its halfway point.

Bounds are passed on as bounds.

The target of one experiment is T1, REV-ERBβ (Homo sapiens, UniProt Q14995).
T1 construct: 6×Histag-REV-ERBα LBD (human; residues 381-579); made in house; host or cells: Escherichia coli
T1 sequence (Q14995 381-579): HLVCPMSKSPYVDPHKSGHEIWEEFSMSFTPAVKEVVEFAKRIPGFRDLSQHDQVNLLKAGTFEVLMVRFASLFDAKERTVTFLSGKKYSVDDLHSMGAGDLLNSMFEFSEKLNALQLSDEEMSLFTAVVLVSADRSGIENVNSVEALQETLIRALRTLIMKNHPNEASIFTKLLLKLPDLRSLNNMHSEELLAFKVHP
Nature of the experiment: TR-FRET corepressor interaction assay (REV-ERBβ, FITC-SMRT peptide). The following applies: Table 2, read-out: REVERBβ agonism (EC50 class, FRET assay). Format: biochemical. On the procedure: TR-FRET corepressor interaction assay. The time-resolved fluorescence resonance energy transfer (TR-FRET) assay was performed in black low-volume 384-well plates (Greiner). […] Ligand stocks were prepared via serial dilution in DMSO, added to wells in triplicate, and plates were incubated at 4° C. for 2 h and read using a BioTek Synergy Neo multimode plate reader. The Tb donor was excited at 340 nm; its fluorescence emission was monitored at 495 nm, and the acceptor FITC emission was measured at 520 nm; and the TR-FRET ratio was calculated as the signal at 520 nm divided by the signal at 495 nm. Data were plotted using GraphPad Prism as TR-FRET ratio vs. ligand concentration and fit to sigmoidal dose response curve equation.
Exemplary compounds of the present disclosure were assayed as described above to assess agonism of REV-ERBα and REV-ERBβ.
(Time-resolved FRET reads energy transfer from a long-lived donor to a nearby acceptor.)

Experiment [1] deals with T2, REV-ERBα LBD (human; residues 281-614 Δ324-422) (Homo sapiens, UniProt P20393, DEL324-422).
T2 construct: 6×Histag-REV-ERBα LBD (human; residues 281-614 Δ324-422); made in house; host or cells: Escherichia coli
Nature of the experiment: TR-FRET corepressor interaction assay (REV-ERBα LBD, FITC-SMRT peptide). The format is biochemical. The settings on record: Table 2, read-out: REVERBα agonism (EC50 class, FRET assay). Put shortly: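 Compound serial dilutions (in DMSO, triplicate) incubated 2 h at 4 °C; Tb donor excited at 340 nm, emission read at 495 nm and FITC acceptor at 520 nm. TR-FRET ratio (520/495 nm) plotted against ligand concentration and fitted to a sigmoidal dose-response curve.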

T2 sequence (P20393 with tags, fused parts or gaps DEL324-422): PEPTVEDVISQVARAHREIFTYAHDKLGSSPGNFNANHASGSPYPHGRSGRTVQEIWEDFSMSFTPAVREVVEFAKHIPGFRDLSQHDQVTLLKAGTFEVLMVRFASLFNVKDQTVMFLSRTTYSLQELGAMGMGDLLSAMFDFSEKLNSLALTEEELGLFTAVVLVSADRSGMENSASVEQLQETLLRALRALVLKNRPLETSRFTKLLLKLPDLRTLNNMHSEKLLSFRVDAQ
T2 sequence (Q9Y618 2335-2356 partner limits assumed): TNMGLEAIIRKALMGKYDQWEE

With `CC(C)Cn1cc(CCNS(=O)(=O)N(C)C)c2ccc(-c3ccncc3)nc21` [Example 203, dimethyl({2-[1-(2-methylpropyl)-6-(pyridin-4-yl)-1H-pyrrolo[2,3-b]pyridin-3-yl]ethyl}sulfamoyl)amine], the EC50 is over 3000 nM at REV-ERBβ and under 500 nM in experiment [1].

With `CC(C)Cn1cc(CCNS(=O)(=O)C(C)C)c2cc(F)c(-c3ccccc3Cl)cc21` [Compound 262], the EC50 was over 3000 nM at REV-ERBβ and under 500 nM in experiment [1].

For the molecule `CC(C)Cn1cc(CCNS(=O)(=O)N(C)C)c2ccc(-c3ccnc(C(F)(F)F)c3)cc21` [Compound 17], the EC50 on REV-ERBβ was over 3000 nM; in experiment [1], 500 to 3000 nM.

As to `CCC(C)n1cc(CCNS(=O)(=O)N(C)C)c2ccc(-c3ccncc3)cc21` (stereo not drawn) [Compound 230], the EC50 on REV-ERBβ is 500 to 3000 nM; in experiment [1] it was under 500 nM.

For the molecule `CC(C)(C)Cn1cc([C@H](NS(=O)(=O)C2CC2)C(F)(F)F)c2cc(F)c(Br)cc21` [Example 342, (S)—N-(1-(6-bromo-5-fluoro-1-neopentyl-1H-indol-3-yl)-2,2,2-trifluoroethyl)cyclopropanesulfonamide], the EC50 on REV-ERBβ is over 3000 nM; in experiment [1], under 500 nM.

For `CC(C)Cn1cc(CCNS(=O)(=O)CC(C)C)c2ccc(-c3ccncc3)cc21` [Compound 12], the EC50 at REV-ERBβ was over 3000 nM; in experiment [1], under 500 nM.

`CC(C)Cn1cc(CCNS(=O)(=O)N(C)C)c2ccc(C(C)C)cc21` [Compound 91, dimethyl({2-[1-(2-methylpropyl)-6-(propan-2-yl)-1H-indol-3-yl]ethyl}sulfamoyl)amine]: the half-maximal effective concentration (EC50) on REV-ERBβ was 500 to 3000 nM; in experiment [1], under 500 nM.

Take `CC(C)Cc1cn(CCNS(=O)(=O)C2CC2)c2ncc(-c3ccncc3)cc12` [Example 365, N-(2-(3-isobutyl-5-(pyridin-4-yl)-1H-pyrrolo[2,3-b]pyridin-1-yl)ethyl)cyclopropanesulfonamide]: the EC50 at REV-ERBβ was over 3000 nM; in experiment [1], under 500 nM.

Take `CC(C)Cn1cc(CCNS(=O)(=O)C2CC2)c2ccc(-c3ccncc3)cc21` [Compound 13]: the EC50 was over 3000 nM at REV-ERBβ and under 500 nM in experiment [1].

For `O=S(=O)(NCc1cn(CC2(C(F)(F)F)CC2)c2cc(-c3ccncc3Cl)c(F)cc12)C1CC1` [Compound 286], the EC50 on REV-ERBβ was over 3000 nM; in experiment [1], under 500 nM.

On to `CC(C)Cn1cc(CCNS(=O)(=O)N(C)C)c2ccccc21` [Compound 68, dimethyl({2-[1-(2-methylpropyl)-1H-indol-3-yl]ethyl}sulfamoyl)amine], for which the results for the EC50 (on REV-ERBβ; in experiment [1]) were over 3000 nM and 500 to 3000 nM, respectively.

Take `CC(C)Cn1cc(CCNS(=O)(=O)N(C)C)c2ccc(C(F)(F)F)cc21` [Example 105, dimethyl({2-[1-(2-methylpropyl)-6-(trifluoromethyl)-1H-indol-3-yl]ethyl}sulfamoyl)amine]: the figures for the EC50 (at REV-ERBβ; in experiment [1]) were over 3000 nM and under 500 nM, respectively.
